Reference: patent US12552758B2, “Inhibitors of MLH1 and/or PMS2 for cancer treatment” (NeoPhore Limited, priority 2020, dated 2026)
pIC50: −log10 of the molar value. Blank lines part the entries; values can stand above or below the compound they belong to.

Assays:
[1] = target: recombinant N-terminal MLH1 (residues 15-340) (Homo sapiens (Human), UniProt P40692); test: Fluorescence polarisation assay for MLH1 (protocol for all Examples except Examples 64, 76, 90 and 95); type: binding; settings: FP probe displacement; 100 nM N-terminal MLH1, 5 nM probe compound, read after 15 minutes; all Examples except 64, 76, 90 and 95
Chain of recombinant N-terminal MLH1 (residues 15-340) (P40692 15-340): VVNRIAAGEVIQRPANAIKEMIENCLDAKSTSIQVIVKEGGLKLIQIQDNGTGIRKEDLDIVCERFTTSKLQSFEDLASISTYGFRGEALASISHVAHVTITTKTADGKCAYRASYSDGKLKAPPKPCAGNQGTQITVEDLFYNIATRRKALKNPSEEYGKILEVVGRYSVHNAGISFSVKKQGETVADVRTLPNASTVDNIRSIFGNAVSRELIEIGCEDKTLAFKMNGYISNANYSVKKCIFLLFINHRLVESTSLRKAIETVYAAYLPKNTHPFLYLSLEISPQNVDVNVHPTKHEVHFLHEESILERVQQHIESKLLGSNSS
Experimental: Fluorescence Polarisation Assay for MLH1 (Protocol for all Examples Except Examples 64, 76, 90 and 95)
(§1) Test compounds, as 10 mM DMSO stocks, were dispensed into a Black Fluotrac 200 384 well medium binding plate (Greiner Bio-One, item number 781076) using a Labcyte Echo acoustic liquid handler. For single point screening, test compounds were added to wells in columns 1-22 whilst DMSO was added to wells in columns 23 and 24 in order to normalise the plate. For potency determination, serial dilutions of test compounds were added to wells in columns 3-22 and DMSO volume was normalised across the plate.
20 μL assay buffer was added to all wells in columns 1 and 24 (column 24 only for single point screening) using a MultiDrop Combi (ThermoFisher). Plates were centrifuged for 1 minute at 250×g and were incubated at room temperature for 30 minutes prior to the addition of 20 μL of 2×(10 nM) of 5-((5-(4-((2-(2,4-dihydroxy-5-isopropylbenzoyl)isoindolin-5-yl)methyl)piperazin-1-yl)pentyl)carbamoyl)-2-(6-(dimethylamino)-3-(dimethyliminio)-3H-xanthen-9-yl)benzoate (referred to hereinafter as “probe compound”) in assay buffer (prepared from a 100 μM DMSO stock) with a MultiDrop Combi (ThermoFisher). The final concentration of N-terminal MLH1 was 100 nM and the final concentration of probe compound was 5 nM.
(§2) Compound plates were centrifuged for 1 minute at 250×g for 1 minute and were incubated at room temperature for 15 minutes before being read on a PheraStar FSX (fitted with 384-well aperture spoon and 540 590 590 FP optic module). The gain and focus were adjusted before each plate was read so that the polarisation of a no enzyme control (column 24) was equal to 35 mP. Data were normalised against the no inhibitor controls (column 23) and no enzyme controls (column 24).

[2] = target: recombinant N-terminal PMS2 (residues 1-365) (Homo sapiens (Human), UniProt P54278); test: Fluorescence polarisation assay for PMS2; type: binding; settings: FP probe displacement; 10 nM N-terminal PMS2, 5 nM probe compound, read after 1 hour
Chain of recombinant N-terminal PMS2 (residues 1-365) (P54278 1-365): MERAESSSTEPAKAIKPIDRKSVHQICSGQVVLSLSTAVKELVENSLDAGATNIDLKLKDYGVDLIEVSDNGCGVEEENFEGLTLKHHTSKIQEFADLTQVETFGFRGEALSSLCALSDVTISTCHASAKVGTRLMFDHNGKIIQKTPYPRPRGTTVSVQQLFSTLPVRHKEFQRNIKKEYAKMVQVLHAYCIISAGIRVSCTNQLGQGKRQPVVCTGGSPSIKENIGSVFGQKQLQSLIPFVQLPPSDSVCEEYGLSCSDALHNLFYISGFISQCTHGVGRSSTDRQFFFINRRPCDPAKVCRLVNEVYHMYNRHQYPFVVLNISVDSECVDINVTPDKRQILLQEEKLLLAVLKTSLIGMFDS
Experimental: Fluorescence Polarisation Assay for PMS2
as §1
20 μL assay buffer was added to all wells in columns 1 and 24 (column 24 only for single point screening) using a MultiDrop Combi (ThermoFisher). Plates were centrifuged for 1 minute at 250×g and were incubated at room temperature for 30 minutes prior to the addition of 20 μL of 2×([…]) of 5-((5-(4-((2-(2,4-dihydroxy-5-isopropylbenzoyl)isoindolin-5-yl)methyl)piperazin-1-yl)pentyl)carbamoyl)-2-(6-(dimethylamino)-3-(dimethyliminio)-3H-xanthen-9-yl)benzoate (referred to hereinafter as “probe compound”) in assay buffer (prepared from a 100 μM DMSO stock) with a MultiDrop Combi (ThermoFisher). The final concentration of N-terminal PMS2 was 10 nM and the final concentration of probe compound was 5 nM.
as §2, with “1 hour” for “15 minutes”

pIC50 [1]: < 5.00
pIC50 [2]: 5.00 to 6.00
SMILES: Cc1c(O)cc(O)c(C(=O)N2Cc3ccccc3C(CO)C2)c1OCc1ccccc1 (centres unmarked) [Example 66, (2-(Benzyloxy)-4,6-dihydroxy-3-methylphenyl)(4-(hydroxymethyl)-3,4-dihydroisoquinolin-2(1H)-yl)methanone]

pIC50 [1]: < 5.00
pIC50 [2]: > 6.00
SMILES: Cc1c(O)cc(O)c(C(=O)N2Cc3ccc(CN(C)C)cc3C2)c1OCc1ccccc1 [Example 68, (2-(Benzyloxy)-4,6-dihydroxy-3-methylphenyl)(5-((dimethylamino)methyl)isoindolin-2-yl)methanone]

pIC50 [1]: < 5.00
pIC50 [2]: > 6.00
SMILES: Cc1c(O)cc(O)c(C(=O)N2Cc3ccc(CN4CCOCC4)cc3C2)c1OCc1ccccc1 [Example 69, (2-(Benzyloxy)-4,6-dihydroxy-3-methylphenyl)(5-(morpholinomethyl)isoindolin-2-yl)methanone]

pIC50 [1]: < 5.00
pIC50 [2]: 5.00 to 6.00
SMILES: Cc1c(O)cc(O)c(C(=O)N2CCc3ccccc32)c1OCc1ccccc1 [Example 70, (2-(Benzyloxy)-4,6-dihydroxy-3-methylphenyl)(indolin-1-yl)methanone]

pIC50 [1]: 5.00 to 6.00
pIC50 [2]: 5.00 to 6.00
SMILES: O=C(c1c(O)cc(O)cc1OCc1ccccc1)N1CCc2ccccc21 [Example 71, (2-(Benzyloxy)-4,6-dihydroxyphenyl)(indolin-1-yl)methanone]

pIC50 [1]: < 5.00
pIC50 [2]: 5.00 to 6.00
SMILES: Cc1c(O)cc(O)c(C(=O)N2CCCc3ccccc32)c1OCc1ccccc1 [Example 72, (2-(Benzyloxy)-4,6-dihydroxy-3-methylphenyl)(3,4-dihydroquinolin-1(2H)-yl)methanone]

pIC50 [1]: 5.00 to 6.00
pIC50 [2]: 5.00 to 6.00
SMILES: O=C(c1c(O)cc(O)cc1OCc1ccccc1)N1CCCc2ccccc21 [Example 73, (2-(Benzyloxy)-4,6-dihydroxyphenyl)(3,4-dihydroquinolin-1(2H)-yl)methanone]

pIC50 [1]: < 5.00
pIC50 [2]: > 6.00
SMILES: Cc1c(O)cc(O)c(C(=O)N2Cc3ccncc3C2)c1OCc1ccccc1 [Example 74, (2-(Benzyloxy)-4,6-dihydroxy-3-methylphenyl)(1,3-dihydro-2H-pyrrolo[3,4-c]pyridin-2-yl)methanone]

pIC50 [1]: < 5.00
pIC50 [2]: > 6.00
SMILES: Cc1c(O)cc(O)c(C(=O)N2Cc3cccc(CN4CCN(C)CC4)c3C2)c1OCc1ccccc1 [Example 75, (2-(Benzyloxy)-4,6-dihydroxy-3-methylphenyl)(4-((4-methylpiperazin-1-yl)methyl)isoindolin-2-yl)methanone]

pIC50 [1]: < 5.00
pIC50 [2]: > 6.00
SMILES: Cc1c(O)cc(O)c(C(=O)N2CCc3ccc(C(=O)N(C)C)cc3C2)c1OCc1ccccc1 [Example 77, 2-(2-(Benzyloxy)-4,6-dihydroxy-3-methylbenzoyl)-N,N-dimethyl-1,2,3,4-tetrahydroisoquinoline-7-carboxamide]

pIC50 [1]: < 5.00
pIC50 [2]: > 6.00
SMILES: Cc1c(O)cc(O)c(C(=O)N2CCc3cc(C(=O)N(C)C)ccc3C2)c1OCc1ccccc1 [Example 78, 2-(2-(benzyloxy)-4,6-dihydroxy-3-methylbenzoyl)-N,N-dimethyl-1,2,3,4-tetrahydroisoquinoline-6-carboxamide]

pIC50 [1]: < 5.00
pIC50 [2]: > 6.00
SMILES: Cc1c(O)cc(O)c(C(=O)N2Cc3cccc(NC4CCOC4)c3C2)c1OCc1ccccc1 (centres unmarked) [Example 79, (2-(Benzyloxy)-4,6-dihydroxy-3-methylphenyl)(4-((tetrahydrofuran-3-yl)amino)isoindolin-2-yl)methanone]

The next lines start with the compound.

SMILES: CN1CCN(Cc2ccc3c(c2)CN(C(=O)c2c(O)cc(O)cc2OCc2ccccc2)C3)CC1 [Example 49, (2-(benzyloxy)-4,6-dihydroxyphenyl)(5-((4-methylpiperazin-1-yl)methyl)isoindolin-2-yl)methanone]
pIC50 [1]: 5.00 to 6.00
pIC50 [2]: > 6.00

SMILES: Cc1c(O)cc(O)c(C(=O)N2Cc3cccc(N)c3C2)c1OCc1ccccc1 [Example 50, (4-aminoisoindolin-2-yl)(2-(benzyloxy)-4,6-dihydroxy-3-methylphenyl)methanone]
pIC50 [1]: < 5.00
pIC50 [2]: > 6.00

SMILES: C=Cc1cccc2c1CN(C(=O)c1c(O)cc(O)c(C)c1OCc1ccccc1)C2 [Example 51, (2-(benzyloxy)-4,6-dihydroxy-3-methylphenyl)(4-vinylisoindolin-2-yl)methanone]
pIC50 [1]: < 5.00
pIC50 [2]: > 6.00

SMILES: COc1ccc2c(c1)CN(C(=O)c1c(O)cc(O)c(C)c1OCc1ccccc1)CC2 [Example 52, (2-(benzyloxy)-4,6-dihydroxy-3-methylphenyl)(7-methoxy-3,4-dihydroisoquinolin-2(1H)-yl)methanone]
pIC50 [1]: < 5.00
pIC50 [2]: > 6.00

SMILES: Cc1c(O)cc(O)c(C(=O)N2CCc3cccnc3C2)c1OCc1ccccc1 [Example 53, (2-(benzyloxy)-4,6-dihydroxy-3-methylphenyl)(5,8-dihydro-1,7-naphthyridin-7(6H)-yl)methanone]
pIC50 [1]: < 5.00
pIC50 [2]: 5.00 to 6.00

SMILES: Cc1c(O)cc(O)c(C(=O)N2CCc3ncccc3C2)c1OCc1ccccc1 [Example 54, (2-(benzyloxy)-4,6-dihydroxy-3-methylphenyl)(7,8-dihydro-1,6-naphthyridin-6(5H)-yl)methanone]
pIC50 [1]: < 5.00
pIC50 [2]: 5.00 to 6.00

SMILES: Cc1c(O)cc(O)c(C(=O)N2CCc3ncncc3C2)c1OCc1ccccc1 [Example 55, (2-(benzyloxy)-4,6-dihydroxy-3-methylphenyl)(7,8-dihydropyrido[4,3-d]pyrimidin-6(5H)-yl)methanone]
pIC50 [1]: < 5.00
pIC50 [2]: 5.00 to 6.00

SMILES: Cc1c(O)cc(O)c(C(=O)N2CCc3cncnc3C2)c1OCc1ccccc1 [Example 56, (2-(benzyloxy)-4,6-dihydroxy-3-methylphenyl)(5,8-dihydropyrido[3,4-d]pyrimidin-7(6H)-yl)methanone]
pIC50 [1]: < 5.00
pIC50 [2]: 5.00 to 6.00

SMILES: Cc1c(O)cc(O)c(C(=O)N2CCc3ccccc3C2)c1OCc1ccn(C)n1 [Example 57, (3,4-dihydroisoquinolin-2(1H)-yl)(4,6-dihydroxy-3-methyl-2-((1-methyl-1H-pyrazol-3-yl)methoxy)phenyl)methanone]
pIC50 [1]: < 5.00
pIC50 [2]: < 5.00

SMILES: O=C(c1c(O)cc(O)cc1OCc1ccccc1)N1CCc2ccccc2C1 [Example 58, (2-(benzyloxy)-4,6-dihydroxyphenyl)(3,4-dihydroisoquinolin-2(1H)-yl)methanone]
pIC50 [1]: 5.00 to 6.00
pIC50 [2]: 5.00 to 6.00

SMILES: Cc1c(O)cc(O)c(C(=O)N2Cc3ccccc3C2)c1OCc1ccccc1 [Example 59, (2-(benzyloxy)-4,6-dihydroxy-3-methylphenyl)(isoindolin-2-yl)methanone]
pIC50 [1]: < 5.00
pIC50 [2]: > 6.00

SMILES: Cc1c(O)cc(O)c(C(=O)N2CCc3ccc(CN(C)C)cc3C2)c1OCc1ccccc1 [Example 60, (2-(benzyloxy)-4,6-dihydroxy-3-methylphenyl)(7-((dimethylamino)methyl)-3,4-dihydroisoquinolin-2(1H)-yl)methanone]
pIC50 [1]: < 5.00
pIC50 [2]: > 6.00

SMILES: Cc1c(O)cc(O)c(C(=O)N2CCc3cc(CN(C)C)ccc3C2)c1OCc1ccccc1 [Example 61, (2-(benzyloxy)-4,6-dihydroxy-3-methylphenyl)(6-((dimethylamino)methyl)-3,4-dihydroisoquinolin-2(1H)-yl)methanone]
pIC50 [1]: < 5.00
pIC50 [2]: > 6.00

SMILES: Cc1c(O)cc(O)c(C(=O)N2Cc3ccccc3C[C@H]2CO)c1OCc1ccccc1 [Example 62, (S)-(2-(Benzyloxy)-4,6-dihydroxy-3-methylphenyl)(3-(hydroxymethyl)-3,4-dihydroisoquinolin-2(1H)-yl)methanone]
pIC50 [1]: < 5.00
pIC50 [2]: 5.00 to 6.00

SMILES: Cc1c(O)cc(O)c(C(=O)N2Cc3ccccc3C2CO)c1OCc1ccccc1 (centres unmarked) [Example 63, (2-(benzyloxy)-4,6-dihydroxy-3-methylphenyl)(1-(hydroxymethyl)isoindolin-2-yl)methanone]
pIC50 [1]: < 5.00
pIC50 [2]: 5.00 to 6.00

SMILES: Cc1c(O)cc(O)c(C(=O)N2CCc3ccccc3C2CO)c1OCc1ccccc1 (centres unmarked) [Example 65, (2-(Benzyloxy)-4,6-dihydroxy-3-methylphenyl)(1-(hydroxymethyl)-3,4-dihydroisoquinolin-2(1H)-yl)methanone]
pIC50 [1]: < 5.00
pIC50 [2]: < 5.00
